Experimental data taken from US10259815B2, “Gabaergic ligands and their uses” (UWM Research Foundation, Inc., priority 2015, dated 2019).
Values joined by “and” are separate entries in the source; they are usually repeats but may differ in a detail not shown here. Equal values may be shown once.

Legend:
[1] = Liver microsomal stability, rat; assay type: in vitro ADME; conditions: for Rat Liver microsome stability (reported in % remaining): 37° C., 4 μM compound, 30 minutes
Procedure: (§1) In vitro metabolism studies were done in mouse, rat, human, and dogs cells (TABLE 2).
(§2) In vitro liver microsomal studies were completed to measure the stability of the compounds against degradation in various species' liver microsomes.
(§3) Compound was incubated in hepatic microsomes over a 30-minute incubation period at 37° C. Incubations both with and without NADPH (2 mM) were performed in a 96-well plate format. The reaction was initiated with the addition of substrate and was terminated by protein precipitation. All incubations were performed using a final substrate concentration of 4 μM in 50 mM sodium phosphate buffer, pH 7.4. The final organic solvent content was 0.5% acetonitrile and 0.02% DMSO. The amount of enzyme present was fixed at 1.11 mg/mL protein irrespective of the species of microsomes used. Samples were analyzed by LC/MS-MS to determine the percent loss in the NAPDH incubations relative to the NADPH free incubations.

[2] = molecular target: T1, α1, β3, γ2 GABA A receptor (Homo sapiens, UniProt P14867+P18507); assay: FLIPR functional assay, α1 GABAA receptor subtype in HEK-293 cells; assay type: cell-based
T1 construct: host or cells: HEK-293, stably transfected
From the text: (§4) The FLIPR functional assay is used to determine the EC50 at the α1 and α3 GABAA receptor subtypes. A high EC50 for the α1 subtype would indicate a low chance of adverse effects, including sedation, ataxia, and muscle relaxation. A low α3 EC50 would indicate potential effectiveness as an anxiolytic, antihyperalgesic, and likely an anticonvulsant. See, for example, Liu et al. (Assay. Drug. Dev. Technol. 2008, 6, 781-6) and Joesch et al. (J. Biomol. Screen. 2008, 13, 218-28).
(§5) Compounds tested were synthesized internally and solubilized in DMSO at a 10 mM concentration. GABA was purchase from Sigma (#A2129) and prepared at 100 mM in water.
(§6) HEK-293 cells were stably transfected with the α1, β3, γ2 GABA A receptor subunits (GenBank accession numbers NM_000806.3, NM_000814.5, and NM_198904.1, respectively) or α3, β3, γ2 (NM_000808 for α3) where obtained from ChanTest Co. (Catalog # CT6216 and CT6218, respectively).
(§7) Cells were cultivated in Dulbeco's Modified Eagle's Medium (DMEM, Sigma D5796) supplemented with 10% Fetal Bovine Serum (FBS, Gibco 16000), 0.5 mg/mL Geneticin (Gibco), 0.04 mg/mL Hygromycin B (Gibco), 0.1 mg/mL Zeocin (Gibco) and 20 mM HEPES (Sigma). Cells were grown at 37° C. in a humidified atmosphere of 5% CO2. In the experiments described here frozen cells were used. For this purpose, cells were gown and maintained under confluency during 2-3 weeks and then frozen down at different cell densities using Recovery™ Cell Culture Freezing Medium (Gibco).
(§8) 18 hours prior to the experiment, cells were quickly thawed at 37° C. and seeded on Poly-D-Lys 384 plates (Corning 356663) at a density of 25,000 cells/well and in 25 μL of complete cell medium as described above.
(§9) Membrane potential changes induced by the flux of ions through the receptor were measured as relative fluorescence units (RFU) using the Fluorometric Imaging Plate Reader (FLIPR Tetra®, Molecular Devices) and the FLIPR Membrane Potential Blue Assay kit (Molecular Devices). Prior to the addition of the compounds the medium was removed and cells were loaded with 20 μL of dye prepared in assay buffer composed of Hank's Balanced Salt Solution (HBSS with Ca^+2 and Mg^+2; Gibco 14025) with 20 mM Hepes. After 1 hour of incubation at room temperature (RT), the plate was placed into the FLIPR instrument and experiments were run adding first 10 μL from the 1st addition plate (compound plate) and after a 3 minutes incubation adding 20 μL of the 2nd addition or agonist plate. The response to this last GABA addition was monitored for another 3 minutes. […]
(§10) Data Analysis. The difference between the maximum and the minimum (Max-Min) fluorescence reached during the first addition or read interval and the second read interval were used for data analysis (agonist and potentiation, respectively). […]

[3] = Liver microsomal stability, mouse; assay type: in vitro ADME; conditions: for Mouse Liver microsome stability (reported in % remaining): 37° C., 4 μM compound, 30 minutes
Procedure: as §1, §2, §3

[4] = Liver microsomal stability, human; assay type: in vitro ADME; conditions: for Human Liver microsome stability (reported in % remaining): 37° C., 4 μM compound, 30 minutes
Procedure: as §1, §2, §3

Rats [5] = assay: Food-maintained operant responding (rate response); assay type: in vivo; conditions: three-assay comparison
Procedure: Food-maintained operant responding (rate response). Rats (n=7) were placed in a chamber consisting of two (one active) levers. Rats were trained to press a lever (left) for a food pellet under a multiple-cycle procedure. […] The active period was set on a FR10 schedule and rats could receive a maximum of 5 food pellets. The cue light was terminated either after 5 minutes or once 5 food pellets were delivered. After each active period (every 20 minutes), rats received the next dose of drug for a duration of 2 hours. Data (rate per minute) was collected using Graphic State 3.03 software and interface (Coulbourn Instruments Inc.)
(§11) Drugs. The following drugs were used: HZ166, KRM-II-18B, and KRM-II-81, and were dissolved in a mixture containing 20% Dimethyl sulfoxide (DMSO), 10% Emulphor-620 (Rhodia Inc.), and 70% of 0.9% saline. Flumazenil (purchased from Cayman Chemical Company, MI) was dissolved in a mixture containing 10% ethanol, 40% propylene glycol, and 50% sterile water. Midazolam (Akorn, Inc.) was dissolved in 0.9% saline. Doses were expressed as the weight of the drug in milligrams per kilogram of body weight and drugs were administered intraperitoneally.

[6] = molecular target: T2, α3, β3, γ2 GABA A receptor (Homo sapiens, UniProt P18507+P34903); assay: FLIPR functional assay, α3 GABAA receptor subtype in HEK-293 cells; assay type: cell-based; conditions: α3 Binding EC50, FLIPR membrane potential, potentiation of GABA EC20
T2 construct: host or cells: HEK-293, stably transfected
From the text: as §4, §5, §6, §7, §8, §9, §10

Rats [7] = assay: Horizontal wire test; assay type: in vivo; conditions: three-assay comparison
Procedure: Horizontal wire test. Rats (n=10) were lifted by the tail and allowed to grasp a horizontally strung wire with their forepaws and released. The inability to complete this task (within 3 seconds) was recorded 20 minutes after each injection of drug.
as §11

T2 sequence (P34903 29-492): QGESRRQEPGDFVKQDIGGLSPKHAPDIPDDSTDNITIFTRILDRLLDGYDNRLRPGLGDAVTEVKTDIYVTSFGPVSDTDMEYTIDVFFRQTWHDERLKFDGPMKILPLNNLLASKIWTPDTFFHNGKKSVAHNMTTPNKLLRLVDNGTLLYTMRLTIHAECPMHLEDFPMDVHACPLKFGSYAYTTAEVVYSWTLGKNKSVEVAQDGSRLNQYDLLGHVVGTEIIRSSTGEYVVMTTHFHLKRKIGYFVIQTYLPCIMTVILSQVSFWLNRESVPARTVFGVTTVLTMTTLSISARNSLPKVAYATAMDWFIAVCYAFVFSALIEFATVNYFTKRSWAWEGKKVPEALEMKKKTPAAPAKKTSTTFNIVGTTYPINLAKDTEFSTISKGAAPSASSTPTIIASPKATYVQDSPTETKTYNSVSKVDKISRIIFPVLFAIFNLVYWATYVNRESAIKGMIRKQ
T2 sequence (P28472 26-473 partner): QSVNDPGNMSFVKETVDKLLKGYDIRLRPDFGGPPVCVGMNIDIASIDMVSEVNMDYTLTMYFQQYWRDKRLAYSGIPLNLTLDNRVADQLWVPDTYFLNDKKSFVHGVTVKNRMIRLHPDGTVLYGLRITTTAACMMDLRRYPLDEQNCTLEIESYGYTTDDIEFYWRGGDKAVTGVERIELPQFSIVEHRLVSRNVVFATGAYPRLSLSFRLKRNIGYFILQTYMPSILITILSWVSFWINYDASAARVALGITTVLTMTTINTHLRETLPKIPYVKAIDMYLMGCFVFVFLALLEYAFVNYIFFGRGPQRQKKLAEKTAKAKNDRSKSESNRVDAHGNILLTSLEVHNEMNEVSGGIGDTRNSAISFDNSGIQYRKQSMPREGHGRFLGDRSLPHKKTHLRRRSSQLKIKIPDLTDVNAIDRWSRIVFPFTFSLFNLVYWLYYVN
T2 sequence (P18507 40-475): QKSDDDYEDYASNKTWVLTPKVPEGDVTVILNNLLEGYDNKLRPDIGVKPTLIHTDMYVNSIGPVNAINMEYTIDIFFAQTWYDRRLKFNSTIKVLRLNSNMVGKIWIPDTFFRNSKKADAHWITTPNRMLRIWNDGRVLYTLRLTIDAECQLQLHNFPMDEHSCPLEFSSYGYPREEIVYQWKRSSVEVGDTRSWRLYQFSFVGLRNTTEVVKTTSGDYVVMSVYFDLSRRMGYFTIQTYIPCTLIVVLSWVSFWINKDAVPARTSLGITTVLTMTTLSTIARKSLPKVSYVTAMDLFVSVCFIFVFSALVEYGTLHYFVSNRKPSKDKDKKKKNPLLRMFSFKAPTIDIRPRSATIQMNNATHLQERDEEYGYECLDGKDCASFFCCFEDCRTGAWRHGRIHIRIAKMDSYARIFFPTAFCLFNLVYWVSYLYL
T1 sequence (P14867 28-456): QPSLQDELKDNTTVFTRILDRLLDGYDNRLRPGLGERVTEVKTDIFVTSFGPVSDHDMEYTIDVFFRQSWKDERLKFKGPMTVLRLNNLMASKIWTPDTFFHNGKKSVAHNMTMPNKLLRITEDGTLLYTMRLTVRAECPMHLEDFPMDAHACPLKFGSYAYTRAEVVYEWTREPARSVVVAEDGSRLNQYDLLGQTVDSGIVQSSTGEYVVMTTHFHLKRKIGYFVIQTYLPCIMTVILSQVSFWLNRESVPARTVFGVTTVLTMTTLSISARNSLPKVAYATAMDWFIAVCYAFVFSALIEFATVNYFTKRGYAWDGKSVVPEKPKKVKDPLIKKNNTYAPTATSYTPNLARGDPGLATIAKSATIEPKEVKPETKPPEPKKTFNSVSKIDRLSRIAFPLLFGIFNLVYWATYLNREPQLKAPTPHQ
T1 sequence (P28472 26-473 partner): as the sequence (P28472 26-473 partner) above
T1 sequence (P18507 40-475): as the sequence (P18507 40-475) above

Structure (SMILES)	Rat Liver microsome stability (reported in % remaining) [1]	Rat % Metabolized ([1]; in vitro metabolism, rat)	EC50 [2]	Mouse Liver microsome stability (reported in % remaining) [3]	Mouse % Metabolized ([3]; in vitro metabolism, mouse)	Human Liver microsome stability (reported in % remaining) [4]	Human % Metabolized ([4]; in vitro metabolism, human)	rate-suppressing activity, doses relative to antihyperalgesic doses (Rats [5])	EC50 [6]	muscle-relaxant activity, doses relative to antihyperalgesic doses (Rats [7])
C#Cc1ccc2c(c1)C(c1ccccn1)=NCc1c(-c3cnco3)ncn1-2 [KRM-II-81, 5-(8-Ethynyl-6-(pyridin-2-yl)-4H-benzo[f]imidazo[1,5-a][1,4]diazepin-3-yl)oxazole]	90 % remaining	9.6%	> 20000 nM	90 % remaining	10.1%	91 % remaining	8.6%	much larger doses	970 nM and 937 nM	much larger doses
C#Cc1ccc2c(c1)C(c1ccccc1F)=NCc1c(-c3cnco3)ncn1-2 [KRM-II-18B, 5-(8-Ethynyl-6-(2-fluorophenyl)-4H-benzo[f]imidazo[1,5-a][1,4]diazepin-3-yl)oxazole]	68 % remaining		> 20000 nM	79 % remaining		78 % remaining		much larger doses	11.2 nM	much larger doses
